Experimental findings from the supplement of paper PMC7021759 are described below.

Each structure is given as a SMILES string. ± gives the standard deviation of the averaged measurements.

The subject of the assay is SK-N-MM (SKNMM-MYCN, doxycycline-inducible MYCN). Put plainly: area under dose-response curve (CellTiter-Glo viability normalised to plate controls) (AUC (arbitrary units)); higher = more loss of viability; extreme values may be limits of the assay. The procedure, abridged:
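SK-N-MM cells with doxycycline-inducible MYCN were plated at 1250 cells/100 μL in 96-well plates and given medium with or without doxycycline about 24 h later. Two days later, 10-point 1:3 compound dilution series were pin-transferred (890-fold stock dilution) and re-dosed on day 4. CellTiter-Glo luminescence was read 3 or 8 days after drugging. Log2 signals were normalised to plate positive and negative controls, and area under the dose-response curve was computed.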
A general note: Cellular ATP, detected with luciferase, serves as a proxy for viable cell number.

[1] abbreviates: MYCN induction (doxycycline): +doxycycline (MYCN induced), time after drugging: 3 days.
Where [2] appears, read: MYCN induction (doxycycline): +doxycycline (MYCN induced), time after drugging: 8 days.
[3] abbreviates: MYCN induction (doxycycline): no doxycycline (MYCN not induced), time after drugging: 3 days.
The mark [4] stands for this setting: MYCN induction (doxycycline): no doxycycline (MYCN not induced), time after drugging: 8 days.

Take `CCN(CC)Cc1ccc2cc(COC(=O)Nc3ccc(C(=O)NO)cc3)ccc2c1` [GIVINOSTAT]: the “area under dose-response curve” value by setting is: under setting [1], 132; under setting [2], 283; under setting [3], 96.7; under setting [4], 226.

`COc1ncc(-c2ccc3nccc(-c4ccnnc4)c3c2)cc1NS(=O)(=O)c1ccc(F)cc1F` [OMIPALISIB]: the “area under dose-response curve” value is, setting by setting: under setting [1], 105; under setting [2], 183; under setting [3], 86.2; under setting [4], 160.

Regarding `Nc1ncn([C@@H]2O[C@H](CO)[C@@H](O)[C@H]2O)c(=O)n1` [5-AZACYTIDINE], the “area under dose-response curve” value was 33.8 under setting [1], 58.3 under setting [2], 21.5 under setting [3] and 23.6 under setting [4].

On to `CC(=O)O[C@@]12CO[C@@H]1C[C@H](O)[C@@]1(C)C(=O)[C@H](O)C3=C(C)[C@@H](OC(=O)[C@H](O)[C@@H](NC(=O)OC(C)(C)C)c4ccccc4)C[C@@](O)([C@@H](OC(=O)c4ccccc4)[C@H]21)C3(C)C` [DOCETAXEL], for which the “area under dose-response curve” value by setting is: under setting [1], 142; under setting [2], 292; under setting [3], 107; under setting [4], 183.

Take `Clc1ccc(C(c2ccccc2Cl)C(Cl)Cl)cc1` (configuration not stated) [MITOTANE]: the “area under dose-response curve” value is, setting by setting: under setting [1], 0; under setting [2], 0; under setting [3], 0; under setting [4], 0.

For `Cc1cn(-c2cc(NC(=O)c3ccc(C)c(Nc4nccc(-c5cccnc5)n4)c3)cc(C(F)(F)F)c2)cn1` [NILOTINIB], the “area under dose-response curve” value was 2.25 under setting [1], 2.7 under setting [2], 2.22 under setting [3] and 3.03 under setting [4].

For `Cc1c(-c2c(-c3ccc(F)o3)sc3ncnc(O[C@H](Cc4ccccc4OCc4ccnn4CC(F)(F)F)C(=O)O)c23)ccc(OCCN2CCN(C)CC2)c1Cl`, the “area under dose-response curve” value under setting [2] was 7.67.

As to `O=C1c2c(O)ccc(O)c2C(=O)c2c(NCCNCCO)ccc(NCCNCCO)c21` [MITOXANTHRONE], the “area under dose-response curve” value is 166 under setting [1], 325 under setting [2], 119 under setting [3] and 258 under setting [4].

In the case of `CN(C)c1ccc2nc3ccc(=[N+](C)C)cc-3sc2c1` [METHYLENE BLUE], the “area under dose-response curve” value is, setting by setting: under setting [1], 48.8; under setting [2], 152; under setting [3], 45.6; under setting [4], 75.9.

With `CCC1=C[C@@H]2CN(C1)Cc1c([nH]c3ccccc13)[C@@](C(=O)OC)(c1cc3c(cc1OC)N(C)[C@H]1[C@@](O)(C(=O)OC)[C@H](OC(C)=O)[C@]4(CC)C=CCN5CC[C@]31[C@@H]54)C2` [VINORELBINE], the “area under dose-response curve” value turned out to be 207 under setting [1], 296 under setting [2], 99.3 under setting [3] and 144 under setting [4].

As to `Nc1nccc2c1ncn2[C@@H]1C=C(CO)[C@@H](O)[C@H]1O` [3-DEAZANEPLANOCIN], the “area under dose-response curve” value under setting [1] was found to be 15.9, the “area under dose-response curve” value under setting [2] was 119, the “area under dose-response curve” value under setting [3] is 10.3 and the “area under dose-response curve” value under setting [4] is 40.9.

On to `OC[C@H]1O[C@@H](n2cnc3c2N=CNC[C@H]3O)C[C@@H]1O` [PENTOSTATIN], for which the “area under dose-response curve” value came out at 0 under setting [1], 0 under setting [2] and 0 under setting [3].

For the compound `Cn1nccc1Nc1nccc(-c2ccn([C@H](CO)c3ccc(Cl)c(F)c3)c(=O)c2)n1` [GDC-0994], the “area under dose-response curve” value under setting [1] amounted to 0, the “area under dose-response curve” value under setting [2] turned out to be 0, the “area under dose-response curve” value under setting [3] worked out at 2.52 and the “area under dose-response curve” value under setting [4] was 0.

In the case of `CO[C@@]12[C@H](COC(N)=O)C3=C(C(=O)C(C)=C(N)C3=O)N1C[C@@H]1N[C@@H]12` [MITOMYCIN C], the “area under dose-response curve” value by setting is: under setting [1], 11.1; under setting [2], 100; under setting [3], 4.39; under setting [4], 78.3.

As for `CC1(C)CNc2cc(NC(=O)c3cccnc3NCc3ccncc3)ccc21` [MOTESANIB DIPHOSPHATE], the “area under dose-response curve” value is, setting by setting: under setting [1], 0; under setting [2], 0; under setting [3], 5.62; under setting [4], 0.

`CC(C)(C#N)c1cc(Cn2cncn2)cc(C(C)(C)C#N)c1` [ANASTROZOLE]: the “area under dose-response curve” value by setting is: under setting [1], 4.86; under setting [2], 89.8; under setting [3], 0; under setting [4], 77.4.

Consider `Nc1nc(Cl)nc2c1ncn2[C@@H]1O[C@H](CO)[C@@H](O)[C@@H]1F` [CLOFARABINE], for which the “area under dose-response curve” value was 67.5 under setting [1], 248 under setting [2], 43 under setting [3] and 141 under setting [4].

Turning to `CN1CCCN(C(=O)c2cccc(-c3ccc(/C=C4/C(=O)Nc5ccc(Cl)cc54)o3)c2)CC1` [CX-6258], the “area under dose-response curve” value reads like this: under setting [1], 165; under setting [2], 206; under setting [3], 166; under setting [4], 202.

In the case of `CCOc1ccn(-c2ccc(F)cc2)c(=O)c1C(=O)Nc1ccc(Oc2ccnc(N)c2Cl)c(F)c1`, the “area under dose-response curve” value is, setting by setting: under setting [1], 0; under setting [2], 0; under setting [3], 4.76; under setting [4], 74.3.

As to `CC(C)C[C@H](NC(=O)[C@H](CCc1ccccc1)NC(=O)CN1CCOCC1)C(=O)N[C@@H](Cc1ccccc1)C(=O)N[C@@H](CC(C)C)C(=O)[C@@]1(C)CO1` [CARFILZOMIB], the “area under dose-response curve” value under setting [1] was found to be 295, the “area under dose-response curve” value under setting [2] is 404, the “area under dose-response curve” value under setting [3] came out at 286 and the “area under dose-response curve” value under setting [4] came out at 398.

`C=C(c1ccc(C(=O)O)cc1)c1cc2c(cc1C)C(C)(C)CCC2(C)C` [BEXAROTENE]: the “area under dose-response curve” value runs as follows: under setting [1], 4.22 ± 5.2; under setting [3], 11.9; under setting [4], 0.

Turning to `O=c1cc(-c2cccc3c2Sc2ccccc2S3)oc(N2CCOCC2)c1`, under setting [3], the “area under dose-response curve” value amounted to 16.3.

Turning to `CCc1nc(N)nc(N)c1-c1ccc(Cl)cc1` [PYRIMETHAMINE], the “area under dose-response curve” value runs as follows: under setting [1], 13.5; under setting [2], 65.7; under setting [3], 5.97; under setting [4], 22.1.

As to `Nc1ccn([C@@H]2O[C@H](CO)[C@@H](O)C2(F)F)c(=O)n1` [GEMCITABINE], the “area under dose-response curve” value amounted to 72.2 under setting [1], 299 under setting [2], 43.4 under setting [3] and 139 under setting [4].

For `COc1cccc2c1C(=O)c1c(O)c3c(c(O)c1C2=O)C[C@@](O)(C(=O)CO)C[C@@H]3O[C@H]1C[C@H](N)[C@H](O)[C@H](C)O1` [DOXORUBICIN], the “area under dose-response curve” value under setting [1] amounted to 135, the “area under dose-response curve” value under setting [2] is 295, the “area under dose-response curve” value under setting [3] was found to be 104 and the “area under dose-response curve” value under setting [4] stood at 224.
